# Activity calls are given as the source filed them. No cut-off for these calls is given here.
# How the values were obtained:
# [1] = target: Adenosine receptor A2a (Homo sapiens) (UniProt P29274); experiment: Inhibition of human recombinant A2a receptor at 10 uM by radioligand binding assay
# [2] = target: Adrenergic receptor alpha-1 (Homo sapiens) (UniProt P35348+P25100+P35368); experiment: Inhibition of human recombinant alpha1 receptor at 10 uM by radioligand binding assay
# [3] = target: T1, B2 bradykinin receptor (Homo sapiens) (UniProt P30411); experiment: Inhibition of human recombinant B2 bradykinin receptor at 10 uM by radioligand binding assay
# T1 sequence (whole entry): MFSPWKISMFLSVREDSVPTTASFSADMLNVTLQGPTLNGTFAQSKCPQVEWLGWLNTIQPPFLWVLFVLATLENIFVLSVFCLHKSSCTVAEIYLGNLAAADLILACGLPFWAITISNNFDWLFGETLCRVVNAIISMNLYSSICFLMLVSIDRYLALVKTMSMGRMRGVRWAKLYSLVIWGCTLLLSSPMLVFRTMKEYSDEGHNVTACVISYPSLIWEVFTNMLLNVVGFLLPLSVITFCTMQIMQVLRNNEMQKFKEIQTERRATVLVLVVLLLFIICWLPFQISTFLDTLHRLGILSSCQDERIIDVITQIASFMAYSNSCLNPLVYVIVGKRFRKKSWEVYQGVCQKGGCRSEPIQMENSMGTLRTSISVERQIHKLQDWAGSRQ
# [4] = target: T2, Endothelin-1 receptor (Homo sapiens) (UniProt P25101); experiment: Inhibition of human recombinant ETA receptor at 10 uM by radioligand binding assay
# T2 sequence (whole entry): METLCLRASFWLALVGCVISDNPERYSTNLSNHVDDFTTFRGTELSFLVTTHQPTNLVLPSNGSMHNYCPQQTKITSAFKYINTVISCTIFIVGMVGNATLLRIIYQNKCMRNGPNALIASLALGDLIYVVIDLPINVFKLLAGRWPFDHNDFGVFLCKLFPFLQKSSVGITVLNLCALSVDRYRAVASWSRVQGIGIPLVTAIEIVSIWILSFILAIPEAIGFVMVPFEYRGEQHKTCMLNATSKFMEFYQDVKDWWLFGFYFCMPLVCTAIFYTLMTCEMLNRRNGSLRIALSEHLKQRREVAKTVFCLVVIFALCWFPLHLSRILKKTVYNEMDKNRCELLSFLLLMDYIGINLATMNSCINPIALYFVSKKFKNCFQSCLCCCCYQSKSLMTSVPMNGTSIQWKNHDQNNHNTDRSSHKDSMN
# [5] = target: T3, Galanin receptor type 2 (Homo sapiens) (UniProt O43603); experiment: Inhibition of human recombinant GAL2 receptor at 10 uM by radioligand binding assay
# T3 sequence (whole entry): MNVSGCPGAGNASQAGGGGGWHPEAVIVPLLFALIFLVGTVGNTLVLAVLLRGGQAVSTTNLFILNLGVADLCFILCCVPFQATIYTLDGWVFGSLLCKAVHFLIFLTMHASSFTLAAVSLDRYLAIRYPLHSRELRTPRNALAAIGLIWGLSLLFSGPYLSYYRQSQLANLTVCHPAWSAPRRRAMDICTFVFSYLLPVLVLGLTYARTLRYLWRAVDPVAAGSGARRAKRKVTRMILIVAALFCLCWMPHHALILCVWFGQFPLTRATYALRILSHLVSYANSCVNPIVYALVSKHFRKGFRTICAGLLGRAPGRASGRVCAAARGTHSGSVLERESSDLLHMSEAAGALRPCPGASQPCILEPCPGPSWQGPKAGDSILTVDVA
# [6] = organism: Homo sapiens; experiment: Inhibition of human recombinant Dop delta2 receptor at 10 uM by radioligand binding assay
# [7] = target: Mu-type opioid receptor (Homo sapiens) (UniProt P35372); experiment: Inhibition of human recombinant MOP receptor at 10 uM by radioligand binding assay
# [8] = target: 5-hydroxytryptamine receptor 1B (Homo sapiens) (UniProt P28222); experiment: Inhibition of human recombinant 5HT1B receptor at 10 uM by radioligand binding assay
# [9] = target: T4, 5-hydroxytryptamine receptor 3A (Homo sapiens) (UniProt P46098); experiment: Inhibition of human recombinant 5HT3 receptor at 10 uM by radioligand binding assay
# T4 sequence (whole entry): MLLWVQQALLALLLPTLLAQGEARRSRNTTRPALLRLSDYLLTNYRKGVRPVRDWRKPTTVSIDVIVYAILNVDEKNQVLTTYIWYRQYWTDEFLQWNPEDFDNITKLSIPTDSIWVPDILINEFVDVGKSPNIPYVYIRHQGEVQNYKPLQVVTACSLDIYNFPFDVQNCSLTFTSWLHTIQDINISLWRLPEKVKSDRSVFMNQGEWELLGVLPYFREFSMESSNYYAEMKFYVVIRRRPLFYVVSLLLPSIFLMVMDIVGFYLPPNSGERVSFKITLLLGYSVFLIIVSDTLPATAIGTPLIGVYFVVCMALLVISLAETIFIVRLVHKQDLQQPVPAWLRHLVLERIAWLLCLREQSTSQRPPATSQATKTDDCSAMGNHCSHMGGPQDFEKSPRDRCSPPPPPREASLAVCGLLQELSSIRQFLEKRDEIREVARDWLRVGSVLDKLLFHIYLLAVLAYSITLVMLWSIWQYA
# [10] = organism: Homo sapiens; experiment: Inhibition of human recombinant sst receptor at 10 uM by radioligand binding assay
# [11] = target: T5, Vasoactive intestinal polypeptide receptor 1 (Homo sapiens) (UniProt P32241); experiment: Inhibition of human recombinant VPAC1 receptor at 10 uM by radioligand binding assay
# T5 sequence (whole entry): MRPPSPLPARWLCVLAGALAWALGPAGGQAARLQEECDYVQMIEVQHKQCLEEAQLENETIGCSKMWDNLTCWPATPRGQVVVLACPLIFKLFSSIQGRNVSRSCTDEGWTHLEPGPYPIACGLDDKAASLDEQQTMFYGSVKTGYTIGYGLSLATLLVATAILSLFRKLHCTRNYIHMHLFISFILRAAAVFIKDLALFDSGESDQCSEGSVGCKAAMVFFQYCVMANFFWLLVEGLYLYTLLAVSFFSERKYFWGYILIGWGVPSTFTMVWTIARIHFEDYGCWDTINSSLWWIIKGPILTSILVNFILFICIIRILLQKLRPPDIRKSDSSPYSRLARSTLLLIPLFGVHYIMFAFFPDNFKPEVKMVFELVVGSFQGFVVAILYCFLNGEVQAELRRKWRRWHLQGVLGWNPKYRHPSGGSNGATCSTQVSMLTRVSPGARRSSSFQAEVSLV
# [12] = target: Sodium-dependent noradrenaline transporter (Homo sapiens) (UniProt P23975); experiment: Inhibition of human recombinant NET at 10 uM by radioligand binding assay
# [13] = target: Sodium-dependent dopamine transporter (Homo sapiens) (UniProt Q01959); experiment: Inhibition of human recombinant DAT at 10 uM by radioligand binding assay
# [14] = target: Sodium-dependent serotonin transporter (Homo sapiens) (UniProt P31645); experiment: Inhibition of human recombinant 5HT transporter at 10 uM by radioligand binding assay
# [15] = tested on: Neuropeptide Y receptor type 1; experiment: Inhibition of human recombinant Y1 receptor at 10 uM by radioligand binding assay
# Chain of Sodium-dependent noradrenaline transporter (Homo sapiens) (P23975 whole entry): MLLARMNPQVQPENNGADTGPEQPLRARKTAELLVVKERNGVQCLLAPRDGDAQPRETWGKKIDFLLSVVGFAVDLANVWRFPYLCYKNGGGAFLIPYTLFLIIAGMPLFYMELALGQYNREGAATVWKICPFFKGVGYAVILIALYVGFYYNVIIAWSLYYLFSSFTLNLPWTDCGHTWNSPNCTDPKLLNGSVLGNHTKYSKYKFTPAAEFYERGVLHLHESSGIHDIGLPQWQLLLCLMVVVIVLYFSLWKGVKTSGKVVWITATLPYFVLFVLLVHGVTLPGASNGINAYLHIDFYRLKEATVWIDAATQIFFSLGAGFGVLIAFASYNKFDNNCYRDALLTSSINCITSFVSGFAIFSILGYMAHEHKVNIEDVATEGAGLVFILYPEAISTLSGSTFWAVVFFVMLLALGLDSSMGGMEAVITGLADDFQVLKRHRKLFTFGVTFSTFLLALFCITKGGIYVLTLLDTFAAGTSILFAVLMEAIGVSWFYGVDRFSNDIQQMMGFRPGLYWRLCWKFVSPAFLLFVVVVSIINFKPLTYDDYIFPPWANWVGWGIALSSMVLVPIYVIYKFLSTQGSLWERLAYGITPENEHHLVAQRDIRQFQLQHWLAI
# Chain of Sodium-dependent dopamine transporter (Homo sapiens) (Q01959 whole entry): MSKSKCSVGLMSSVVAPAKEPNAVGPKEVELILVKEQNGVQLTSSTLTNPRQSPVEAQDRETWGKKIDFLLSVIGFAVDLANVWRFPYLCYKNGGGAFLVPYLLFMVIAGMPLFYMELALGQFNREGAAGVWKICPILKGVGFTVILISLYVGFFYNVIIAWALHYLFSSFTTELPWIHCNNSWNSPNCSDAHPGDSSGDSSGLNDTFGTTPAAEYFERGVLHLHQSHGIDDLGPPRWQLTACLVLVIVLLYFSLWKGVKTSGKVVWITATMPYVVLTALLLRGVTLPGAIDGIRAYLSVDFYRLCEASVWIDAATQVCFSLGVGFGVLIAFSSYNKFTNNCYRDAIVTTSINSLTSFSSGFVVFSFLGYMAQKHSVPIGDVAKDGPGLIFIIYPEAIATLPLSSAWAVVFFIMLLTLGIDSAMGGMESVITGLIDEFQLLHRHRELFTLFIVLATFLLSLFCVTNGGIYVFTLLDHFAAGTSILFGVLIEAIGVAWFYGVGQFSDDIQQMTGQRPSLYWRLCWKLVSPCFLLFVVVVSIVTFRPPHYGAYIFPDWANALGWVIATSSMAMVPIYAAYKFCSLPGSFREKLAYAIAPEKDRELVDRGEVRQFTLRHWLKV
# Chain of Mu-type opioid receptor (Homo sapiens) (P35372 whole entry): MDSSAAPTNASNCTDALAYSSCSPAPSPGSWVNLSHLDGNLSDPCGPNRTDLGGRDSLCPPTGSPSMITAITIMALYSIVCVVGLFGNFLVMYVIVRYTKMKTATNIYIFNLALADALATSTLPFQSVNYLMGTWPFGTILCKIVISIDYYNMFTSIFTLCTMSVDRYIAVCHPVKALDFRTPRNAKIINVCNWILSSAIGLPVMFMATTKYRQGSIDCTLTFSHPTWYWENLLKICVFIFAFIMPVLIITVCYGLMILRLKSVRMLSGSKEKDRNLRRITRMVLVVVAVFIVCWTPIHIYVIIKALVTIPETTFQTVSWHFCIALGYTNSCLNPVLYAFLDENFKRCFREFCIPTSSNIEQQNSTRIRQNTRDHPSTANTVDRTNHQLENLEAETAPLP
# Chain of Sodium-dependent serotonin transporter (Homo sapiens) (P31645 whole entry, looked up): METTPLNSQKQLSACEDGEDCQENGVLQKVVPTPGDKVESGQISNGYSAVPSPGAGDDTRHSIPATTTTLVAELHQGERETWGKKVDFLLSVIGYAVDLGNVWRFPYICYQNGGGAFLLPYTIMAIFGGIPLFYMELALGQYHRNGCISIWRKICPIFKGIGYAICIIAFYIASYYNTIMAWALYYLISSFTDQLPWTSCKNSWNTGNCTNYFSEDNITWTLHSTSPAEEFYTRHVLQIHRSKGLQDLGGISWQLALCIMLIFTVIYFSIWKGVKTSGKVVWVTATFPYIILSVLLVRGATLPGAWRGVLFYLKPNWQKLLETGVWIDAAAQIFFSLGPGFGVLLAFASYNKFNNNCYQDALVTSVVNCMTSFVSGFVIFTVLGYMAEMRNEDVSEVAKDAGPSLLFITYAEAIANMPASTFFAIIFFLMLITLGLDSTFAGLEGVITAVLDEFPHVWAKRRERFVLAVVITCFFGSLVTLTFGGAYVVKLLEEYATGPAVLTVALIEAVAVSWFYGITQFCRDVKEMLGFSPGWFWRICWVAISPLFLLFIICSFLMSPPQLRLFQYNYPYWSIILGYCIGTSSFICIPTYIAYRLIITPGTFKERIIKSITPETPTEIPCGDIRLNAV
# Chain of Adenosine receptor A2a (Homo sapiens) (P29274 whole entry): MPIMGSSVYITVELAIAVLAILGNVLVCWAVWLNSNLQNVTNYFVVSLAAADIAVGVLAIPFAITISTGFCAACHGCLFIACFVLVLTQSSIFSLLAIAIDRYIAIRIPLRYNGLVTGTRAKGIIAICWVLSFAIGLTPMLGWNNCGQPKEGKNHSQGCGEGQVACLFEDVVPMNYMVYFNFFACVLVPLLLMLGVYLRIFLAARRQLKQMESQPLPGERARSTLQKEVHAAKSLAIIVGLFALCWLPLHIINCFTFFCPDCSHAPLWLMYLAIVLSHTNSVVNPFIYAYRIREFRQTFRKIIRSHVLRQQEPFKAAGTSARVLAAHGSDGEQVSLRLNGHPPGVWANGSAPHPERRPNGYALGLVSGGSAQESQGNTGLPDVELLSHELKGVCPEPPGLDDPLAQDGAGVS
# Chain of 5-hydroxytryptamine receptor 1B (Homo sapiens) (P28222 whole entry): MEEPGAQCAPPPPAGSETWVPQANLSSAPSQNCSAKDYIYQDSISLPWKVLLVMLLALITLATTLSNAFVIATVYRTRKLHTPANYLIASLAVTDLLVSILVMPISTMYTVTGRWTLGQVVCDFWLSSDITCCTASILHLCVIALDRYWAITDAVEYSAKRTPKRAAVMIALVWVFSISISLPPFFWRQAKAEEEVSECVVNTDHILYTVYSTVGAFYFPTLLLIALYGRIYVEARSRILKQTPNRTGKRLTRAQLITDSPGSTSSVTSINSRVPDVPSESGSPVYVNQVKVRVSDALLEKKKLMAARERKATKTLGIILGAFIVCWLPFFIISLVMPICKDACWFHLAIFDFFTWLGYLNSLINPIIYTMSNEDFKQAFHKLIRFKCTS
SMILES,inhibition [1],inhibition [2],inhibition [3],inhibition [4],inhibition [5],inhibition [6],inhibition [7],inhibition [8],inhibition [9],inhibition [10],inhibition [11],inhibition [12],inhibition [13],inhibition [14],inhibition [15]
Cc1cc(C(N)=O)ccc1-n1c(CCC(=O)O)ccc1-c1ccc(-n2ccnc2)cc1 [N6022],inactive,inactive,inactive,inactive,inactive,Active,inactive,inactive,inactive,inactive,inactive,inactive,inactive,inactive,–
Cc1cc(C(N)=O)ccc1-c1c(-c2ccc(-n3ccnc3)cc2)ccn1CCC(=O)O,inactive,inactive,inactive,inactive,inactive,Active,inactive,inactive,inactive,inactive,inactive,inactive,inactive,inactive,inactive
Cc1cc(C(N)=O)ccc1-c1c(CCC(=O)O)ccn1-c1ccc(-n2ccnc2)cc1,inactive,inactive,inactive,inactive,inactive,Active,inactive,inactive,inactive,inactive,inactive,inactive,inactive,inactive,inactive
COc1ccc(-c2ccn(-c3ccc(C(=O)O)c(O)c3)c2-c2ccc(C(N)=O)cc2C)cc1,Active,Active,Active,Active,Active,Active,Active,Active,Active,Active,Active,Active,Active,Active,Active
COc1ccc(-c2ccn(-c3ccc(O)c([N+](=O)[O-])c3)c2-c2ccc(C(N)=O)cc2C)cc1,Active,Active,Active,Active,Active,Active,Active,Active,Active,Active,Active,Active,Active,Active,Active
